{"source": "patent US5554359A", "about": "“Pigmentation enhancer and method” (priority 1994, dated 1996)", "key": {"[1]": {"system": "tyrosinase abundance in mouse melanoma cells", "details": "other studies; cited from earlier work"}, "[2]": {"system": "tyrosinase activity in mouse melanoma cells", "details": "Cloudman S91; cited from earlier work"}, "tyrosinase mRNA": {"system": "tyrosinase mRNA", "details": "three days; melanocyte cultures; cited from earlier work"}, "[3]": {"system": "tyrosinase activity in human foreskin organ cultures", "assay": "Tyrosinase activity in human foreskin organ cultures (tyrosine hydroxylase assay)", "type": "cell-based", "details": "Table 2; 0.1 mM; 72 h; control 3.15 ± 0.1; triplicate ± s.d.", "method": "At the time of surgical removal, human foreskins were placed on sterile gauze saturated with sterile IMDM medium (Iscove's modified Dulbecco's medium purchased from Irvine Scientific of Santa Ana, Calif.) for transportation from the Hospital nursery to the laboratory. The tissues were rinsed in sterile IMDM medium containing 500 U/ml penicillin and 500 μg/ml of streptomycin for 5 minutes. Under sterile conditions, an intradermal injection of medium was performed from the dermal side prior to dissection of the mucous membrane and lower dermis by scissors to make the thickness of skins equal. The foreskins were then cut into approximately 3 mm×3 mm squares and either frozen at -75° C. or placed in organ culture as described hereafter.\nThe organ culture medium was prepared from IMDM with glutamine supplemented with 20% horse serum, 5% fetal bovine serum, 100 U/ml penicillin, 100 μg/ml streptomycin and 3 mg/ml sodium bicarbonate. The serums were obtained from Hyclone Lab. Inc. of Logan Utah. Culture units were prepared by placing sterilized filters (AP20 025 00, Millipore) over sterilized support screens ([…] Swinnex filter support screens, Millipore) in the wells of 6-well tissue culture plates (Falcon 3046) with medium added to the wells such that the skin support screens floated and the filter absorbed the medium from beneath. The tissue samples were placed, epidermis up, on top of the saturated filters and incubated at 37° C. in a 5% CO2 humidified atmosphere. The medium was changed everyday. Harvested cultures were frozen at -75° C.\nTyrosinase activity in human skin organ cultures was determined by measuring the tyrosine hydroxylase activity of the enzyme. The assay measures the production of ^3 H2 O during the conversion of [^3 H]tyrosine to L-DOPA. Weighed skin preparations were incubated in 0.3 ml of a reaction mixture containing 0.01 mM of L-tyrosine, 5-6 uCi/ml of [^3 H]tyrosine and 0.1 mM L-DOPA in 0.1M of pH 6.8 phosphate buffer for 4 hours at 37° C. To terminate the reaction, 1 ml of phosphate buffer was added, the tubes vortexed, and 0.4 ml aliquots removed in triplicate and mixed with an equal volume of Norit SG activated charcoal (10% w/v, in 0.1N HCl). Following centrifugation at 2000×g for 10 min, the supernatants (0.5 ml) were placed in scintillation vials, scintillation fluid added, and vials counted in a TM Analytic 6895 scintillation counter equipped with a DPM processor.\nHuman foreskins were treated with the compounds shown in Table 1, placed in culture, and incubated for 72 hours. The skins were then assayed for tyrosinase activity with the tyrosine hydroxylase assay method as described herein.\nThe medium and compounds were changed daily. Tyrosinase activity was determined by measuring the tyrosine hydroxylase activity of the enzyme.\nHuman foreskin organ cultures were treated with the compounds listed in Table 3 for 3 days and tyrosinase activity determined as described herein. Theophylline was used at 1 mM."}, "[4]": {"system": "tyrosinase activity in human melanocytes", "assay": "Tyrosinase responses in human melanocytes (Table 6)", "type": "cell-based", "method": "(§1) The mouse melanoma cell lines used to study the effects of lysosomotropic agents herein were the Cloudman S91 cell line (ATCC no. CCL 53.1) and two subclones of this line developed in our laboratory, the amelanotic line, AM-7, and a melanotic line, MEL-11A. All melanoma cell lines were grown in Ham's F-10 nutrient medium supplemented with 10% horse serum, penicillin (100 units/ml), and streptomycin (100 μg/ml). The normal human melanocyte cell strains used in this study were derived from foreskins of either neonares or from boys 2-6 years old. Human melanocyte cultures were grown in Ham's F-10 nutrient medium supplemented with 10% horse serum, 5% fetal bovine serum (FBS), 32 nM TPA (12-O-tetradecanoylphorbol 13-acetate), 10^-4 M IBMX(3-isobutyl-1-methylxanthine), penicillin (100 units/ml), and streptomycin (100 μg/ml).\n(§2) To determine tyrosinase activity in situ in either melanoma cells or in human melanocyte cultures, the tyrosine hydroxylase activity of the enzyme was determined. Cells were seeded into 60-mm culture dishes at 2×10^5 cells/dish and allowed to attach overnight. The medium was then exchanged for the appropriate growth medium supplemented with 1 μCi/ml of [^3 H]tyrosine (L-ring-3,5-^3 H]-tyrosine, DuPont New England Nuclear), and with hormones, where indicated. Cells were grown in labeled medium for 24 hours, and at this time, the medium was removed and assayed for the presence of ^3 H2 O using the charcoal absorption method of Pomerantz. Tyrosinase activity in cell homogenates was determined by sonicating cell pellets in 0.1-M sodium phosphate buffer (pH 6.8) and then incubating 50-μl aliquots in 0.5 ml of a reaction mixture containing 0.1-mM tyrosine, 2 μCi/ml of [^3 H]tyrosine, 0.1-mM L-DOPA (dihydroxyphenylalanine), and 0.1 mM PMSF (phenylmethylsulfonyl fluoride) at 37° C. for 2 hours. Reactions were terminated by the addition of 1 ml of charcoal (10% w/v in 0.1-N HCl). Samples were centrifuged, and the supernatants removed for determination of the amount of ^3 H2 O produced.\nHormone responsiveness in human melanocyte cell cultures were examined (for these studies, melanocytes derived from skin type III were used). […] Tyrosinase activity and melanin content typically double with a 48-hour exposure to IBMX. […] The steroid hormones, for the most part, caused little, if any, change in tyrosinase activity at the concentrations used."}, "[5]": {"system": "tyrosinase activity in mouse melanoma cells", "assay": "Tyrosinase responses in mouse melanoma cells (Table 6)", "type": "cell-based", "method": "as §1\nas §2, with “produced. […]” for “produced.”"}, "[6]": {"system": "melanin in human melanocytes", "assay": "Melanin content in human melanocytes", "type": "cell-based", "details": "48-hour exposure; IBMX", "method": "as §1\nThe amount of melanin in melanoma cells or in melanocytes was determined by incubating cell pellets in 2 ml of 1-N NaOH for 48 hours at 37° C. and then measuring the solubilized melanin at 400 nm.\nDose/response parameters for ammonium chloride action were determined. […] Since tyrosinase is the rate-limiting enzyme for melanin synthesis, the stimulation of this enzyme by ammonium chloride should lead to increased melanin content of stimulated cells. […] Ammonium chloride increased tyrosinase activity in melanocytes from white-skinned individuals twenty-fold within 24 hours and by this time melanin contents had increased two-fold. Two other lysosomotropic agents, monensin and nigericin, were tested for their effects on tyrosinase activity. […] Thus, lysosomotropic agents have the ability to stimulate tyrosinase activity and melanin production in human melanocytes derived from white-skinned individuals, and to reduce melanin production in melanocytes from black-skinned people."}, "[7]": {"system": "melanin in human melanocytes", "details": "three days; melanocyte cultures; cited from earlier work"}, "[8]": {"system": "tyrosinase activity in mouse melanoma cells", "details": "e.g., 10^-5 M; footnote b of Table 6; cited from earlier work"}}}
{"smiles": "CC(C)Cn1c(=O)n(C)c(=O)c2[nH]cnc21", "note": "[IBMX, 3-isobutyl-1-methylxanthine]", "values": [{"measurement": "tyrosinase activity correlates with enzyme abundance", "setting": "[1]", "result": "correlates with an increase in enzyme abundance"}, {"measurement": "mimicking of the MSH response", "setting": "[2]", "result": "mimicked"}, {"measurement": "change in amount of tyrosinase mRNA", "setting": "tyrosinase mRNA", "result": "not accompanied by any increase"}, {"measurement": "Tyrosinase Activity", "setting": "[3]", "result": "7.03 ± 0.49 pmoles ^3 H2 O/hour/mg skin"}, {"measurement": "Tyrosinase Activity", "setting": "[4]; 48-hour exposure, IBMX", "result": "double"}, {"measurement": "activity at 100 µM", "setting": "[4]; Homo sapiens, Melanocyte, Table 6, 10^-7 M except IBMX 10^-4 M, theophylline 1 mM, ammonium chloride 10 mM, A23187 not given, melanocytes from skin type III, read-out: Effect on Tyrosinase Activity, Human Melanocyte", "result": "150 to 200", "unit": "%"}, {"measurement": "response of mouse melanoma cells", "setting": "[5]; compounds that raise intracellular cAMP levels or MSH", "result": "respond vigorously"}, {"measurement": "melanin content", "setting": "[6]", "result": "double"}, {"measurement": "increase in melanin production", "setting": "[7]", "result": "fourfold increase"}]}
{"smiles": "CC1=C(/C=C/C(C)=C/C=C/C(C)=C/C(=O)O)C(C)(C)CCC1", "note": "[Retinoic Acid, all-trans]", "values": [{"measurement": "effect on tyrosine activity at higher concentrations", "setting": "[8]", "result": "stimulate tyrosine activity"}, {"measurement": "Effect on Tyrosinase Activity, Human Melanocyte", "setting": "[4]; Table 6, 10^-7 M except IBMX 10^-4 M, theophylline 1 mM, ammonium chloride 10 mM, A23187 not given, melanocytes from skin type III", "result": "Inhibited"}, {"measurement": "Effect on Tyrosinase Activity, Mouse Melanoma", "setting": "[5]; Table 6, 10^-7 M except IBMX 10^-4 M, theophylline 1 mM, ammonium chloride 10 mM, A23187 not given", "result": "Inhibited"}]}
